Source: patent EP0058890A1, “Antithrombotic compounds” (THE WELLCOME FOUNDATION LIMITED, priority 1981, dated 1982)
Where two headings read alike, the source gives them in different places.

Columns and labels:
exudate fluid volume = test: Carrageenin Pleurisy Assay (Acute); assay type: in vivo, rat; conditions: 3 h, read-out: 3 hr. ED50 against exudate fluid volume
Text: a. […] In this assay, the 3 hr.

gastric erosion = assay type: in vivo; conditions: guinea pig
adjuvant arthritis = test: Adjuvant Arthritis Assay (Chronic); assay type: in vivo, rat; conditions: po, 336 h, read-out: ED50, development of adjuvant arthritis
platelets [1] = test: Ex vivo platelet aggregation after oral dosing, arachidonate and collagen (method of Born), guinea pig; assay type: in vivo; conditions: Cavia porcellus, read-out: dose required to inhibit aggregation rate by 50% (ED50)
Description: (§1) b. Ex vivo studies: The aggregation of platelets taken from animals dosed by the oral route with Compound II is inhibited when tested with arachidonate and collagen by the method of Born ((1962) Nature 194, 927, 929). The dose required to inhibit aggregation rate by 50% (ED50) at 1 hour was 5 mg/kg and 10 mg/kg in the guinea pig and rat, respectively. By comparison, the ED50 for aspirin in the guinea pig was 30 mg/kg, while the ED50 for aspirin in the rat was 10 mg/kg. The ED50 for indomethacin was 10 mg/kg and 5 mg/kg in the guinea pig and rat, respectively. In the dog, 10 mg/kg p.o. was an ED50 for as long as 6 hr.

platelets [2] = test: Ex vivo platelet aggregation after oral dosing, arachidonate and collagen (method of Born), rat; assay type: in vivo; conditions: read-out: dose required to inhibit aggregation rate by 50% (ED50)
Description: as §1

gastric damage = assay type: in vivo; conditions: rat
dog platelets = test: Ex vivo platelet aggregation after oral dosing, dog; assay type: in vivo; conditions: Canis lupus familiaris, for as long as 6 hr
Description: as §1

[3] = tested on: subplantar injection of trypsin; test: Modified Trypsin Hyperalgesic Assay; assay type: in vivo; conditions: drug administration 15 minutes before subplantar trypsin
[4] = tested on: stasis-induced jugular vein thrombosis; test: Protection against stasis-induced jugular vein thrombosis; assay type: in vivo; conditions: guinea pig; given 1 hour prior to ligation
Description: b. Protection against stasis-induced jugular vein thrombosis: When a 1 cm length of guinea pig jugular vein is ligated in situ, a thrombus forms within 30 min. Six mg/kg p.o. of either Compound II or aspirin given 1 hour prior to ligation protected 50% of the animals from thrombosis.

[5] = tested on: Yeast-induced hyperthermia; test: Yeast-Induced Hyperthermia Assay; assay type: in vivo, rat

Which ED50 (exudate fluid volume; rat, oral route) does the source give for `CN(C)CCOc1ccccc1-c1nc(-c2ccccc2)c(-c2ccccc2)[nH]1` [Compound II] here?
The ED50 was 37 mg/kg.

And the gastric damage (gastric erosion; in vivo, po, 100 mg/kg/day)?
The gastric damage was “very slight gastric erosion”.

What about the ED50 (adjuvant arthritis; rat, by gavage for 14 days) of the same molecule?
Its ED50 is 294 mg/kg.

What about the ED50 (platelets [1]; guinea pig, oral route, at 1 hour, arachidonate and collagen) of the same molecule?
Its ED50 is 5 mg/kg.

What about the ED50 (platelets [2]; rat, oral route, at 1 hour, arachidonate and collagen) of the same molecule?
Its ED50 is 10 mg/kg.

What about the gastric damage (gastric damage; in vivo, po, 75 mg/kg/day) of the same molecule?
The gastric damage was “does not produce gastric damage”.

And the gastric damage (gastric damage; in vivo, po, 150 mg/kg)?
Its gastric damage is “does not produce gastric damage”.

And the ED50 (dog platelets)?
The ED50 was 10 mg/kg.

And the ED50 ([3]; read-out: ED50)?
Its ED50 is about 50 mg/kg.

Which ED50 (exudate fluid volume; Rattus norvegicus, po) does the source give for `CC(=O)Oc1ccccc1C(=O)O` [aspirin] here?
The ED50 was 28 mg/kg.

What about the gastric damage (gastric erosion; 100 mg/kg/day p.o. for 3 days) of the same molecule?
The gastric damage was “severe ulceration and hemorrhage”.

What about the ED50 (adjuvant arthritis; Rattus norvegicus) of the same molecule?
Its ED50 is 175 mg/kg.

And the ED50 (platelets [1]; po, 1 h)?
Its ED50 is 30 mg/kg.

What about the “dose that protected 50% of the animals from thrombosis” value [4] of the same molecule?
The value was “Six”.

What about the ED50 (platelets [2]; Rattus norvegicus, po, 1 h) of the same molecule?
The ED50 was 10 mg/kg.

What about the gastric damage (gastric damage; single oral dose of 30 mg/kg) of the same molecule?
The gastric damage was “produces ulcers and hemorrhages”.

And the ED50 ([5]; Rattus norvegicus, po)?
Its ED50 is 50 mg/kg.

And the hypothermia ([5]; rat, for Compound II 3-4 hours after dosing)?
The hypothermia was “does not produce hypothermia”.

What about the ED50 [3] of the same molecule?
The ED50 was “inactive”.

Which ED50 (exudate fluid volume; Rattus norvegicus, po) does the source give for `COc1ccc2c(c1)c(CC(=O)O)c(C)n2C(=O)c1ccc(Cl)cc1` [indomethacin] here?
The ED50 was 2 mg/kg.

And the ED50 (adjuvant arthritis; Rattus norvegicus)?
Its ED50 is 1 mg/kg.

And the ED50 (platelets [1]; po, 1 h)?
The ED50 was 10 mg/kg.

What about the ED50 (platelets [2]; Rattus norvegicus, po, 1 h) of the same molecule?
The ED50 was 5 mg/kg.

What about the gastric damage (gastric damage; single oral dose of 5 mg/kg) of the same molecule?
Its gastric damage is “produces ulcers”.

And the ED50 [3]?
Its ED50 is “inactive”.
